{"source": "patent US12582665B2", "about": "“Topical composition” (FUTURA MEDICAL DEVELOPMENTS LIMITED, priority 2020, dated 2026)", "origin": "cited, not measured here", "key": {"[1]": {"experiment": "not given", "remark": "listed apart in the source"}}}
{"molecule": "C=C(C)[C@@H]1CCC(C)=C[C@H]1c1c(O)cc(CCCCC)cc1O", "note": "[CBD, cannabidiol]", "values": [{"measurement": "log P", "result": "~+6.00"}, {"measurement": "Solubility in propylene glycol", "setting": "[1]", "result": "exceeding 10 % w/w"}]}
